± gives the expanded uncertainty stated by the source.
Assay: xn = mol fraction of the nth substance listed
Conditions: Liquid, vibrating tube

C1CCOC1 [tetrahydrofuran] + O
mass density [kg/m3]
Conditions | 78.5 kPa | 100.7 kPa
293.24 K, x2 = 0.3407 | 907.81 ± 2 | 907.93 ± 2
293.24 K, x2 = 0.988 | 995.8 ± 2 | 995.84 ± 2
293.25 K, x2 = 0.9826 | 994.97 ± 2 | 994.99 ± 2
293.25 K, x2 = 0.9921 | 996.53 ± 2 | 996.6 ± 2
293.26 K, x2 = 0.0208 | 888.12 ± 2 | 888.29 ± 2
293.26 K, x2 = 0.0404 | 889.02 ± 2 | 889.18 ± 2
293.26 K, x2 = 0.0872 | 892.05 ± 2 | 892.21 ± 2
293.26 K, x2 = 0.9418 | 990.31 ± 2 | 990.26 ± 2
293.26 K, x2 = 0.9519 | 991.46 ± 2 | 991.41 ± 2
293.26 K, x2 = 0.9573 | 992.11 ± 2 | 992.05 ± 2
293.26 K, x2 = 0.9709 | 993.71 ± 2 | 993.65 ± 2
293.26 K, x2 = 0.9723 | 993.83 ± 2 | 993.77 ± 2
293.27 K, x2 = 0.0269 | 888.46 ± 2 | 888.63 ± 2
293.27 K, x2 = 0.0429 | 889.18 ± 2 | 889.35 ± 2
293.27 K, x2 = 0.0593 | 890.14 ± 2 | 890.31 ± 2
293.27 K, x2 = 0.6092 | 934.46 ± 2 | 934.53 ± 2
293.28 K, x2 = 0.8857 | 981.21 ± 2 | 981.18 ± 2
298.21 K, x2 = 0.3407 | 902.44 ± 2 | 902.65 ± 2
298.22 K, x2 = 0.0872 | 886.71 ± 2 | 886.95 ± 2
298.22 K, x2 = 0.988 | 994.42 ± 2 | 994.44 ± 2
298.22 K, x2 = 0.9921 | 995.23 ± 2 | 995.24 ± 2
298.23 K, x2 = 0.0269 | 883.01 ± 2 | 883.22 ± 2
298.23 K, x2 = 0.9418 | 987.77 ± 2 | 987.8 ± 2
298.23 K, x2 = 0.9723 | 992.08 ± 2 | 992.11 ± 2
298.23 K, x2 = 0.9826 | 993.47 ± 2 | 993.49 ± 2
298.24 K, x2 = 0.0208 | 882.73 ± 2 | 882.93 ± 2
298.24 K, x2 = 0.0593 | 884.65 ± 2 | 884.9 ± 2
298.24 K, x2 = 0.9573 | 989.99 ± 2 | 990.02 ± 2
298.24 K, x2 = 0.9709 | 991.93 ± 2 | 991.95 ± 2
298.25 K, x2 = 0.0429 | 883.9 ± 2 | 883.99 ± 2
298.25 K, x2 = 0.6092 | 929.43 ± 2 | 929.58 ± 2
298.25 K, x2 = 0.9519 | 989.15 ± 2 | 989.18 ± 2
298.26 K, x2 = 0.8857 | 977.6 ± 2 | 977.65 ± 2
298.29 K, x2 = 0.0404 | 883.74 ± 2 | 883.83 ± 2
303.07 K, x2 = 0.3407 | 897.21 ± 2 | 897.4 ± 2
303.09 K, x2 = 0.9418 | 985.17 ± 2 | 985.19 ± 2
303.1 K, x2 = 0.0269 | 877.63 ± 2 | 877.86 ± 2
303.1 K, x2 = 0.0872 | 881.49 ± 2 | 881.71 ± 2
303.1 K, x2 = 0.9519 | 986.82 ± 2 | 986.81 ± 2
303.1 K, x2 = 0.988 | 993 ± 2 | 992.98 ± 2
303.1 K, x2 = 0.9921 | 993.8 ± 2 | 993.78 ± 2
303.11 K, x2 = 0.0404 | 878.23 ± 2 | 878.45 ± 2
303.11 K, x2 = 0.0593 | 879.35 ± 2 | 879.58 ± 2
303.11 K, x2 = 0.9573 | 987.79 ± 2 | 987.78 ± 2
303.11 K, x2 = 0.9723 | 990.22 ± 2 | 990.21 ± 2
303.11 K, x2 = 0.9826 | 991.87 ± 2 | 991.85 ± 2
303.12 K, x2 = 0.0208 | 877.38 ± 2 | 877.61 ± 2
303.12 K, x2 = 0.6092 | 924.49 ± 2 | 924.62 ± 2
303.12 K, x2 = 0.9709 | 990.08 ± 2 | 990.06 ± 2
303.13 K, x2 = 0.0429 | 878.4 ± 2 | 878.63 ± 2
303.13 K, x2 = 0.8857 | 974.05 ± 2 | 974.07 ± 2
308.19 K, x2 = 0.3407 | 891.62 ± 2 | 891.86 ± 2
308.22 K, x2 = 0.0872 | 875.87 ± 2 | 876.14 ± 2
308.22 K, x2 = 0.9418 | 982.23 ± 2 | 982.27 ± 2
308.22 K, x2 = 0.9519 | 984.2 ± 2 | 984.24 ± 2
308.22 K, x2 = 0.9921 | 991.99 ± 2 | 992.01 ± 2
308.23 K, x2 = 0.0269 | 871.92 ± 2 | 872.19 ± 2
308.23 K, x2 = 0.0404 | 872.54 ± 2 | 872.75 ± 2
308.23 K, x2 = 0.0593 | 873.61 ± 2 | 873.88 ± 2
308.23 K, x2 = 0.988 | 991.08 ± 2 | 991.1 ± 2
308.24 K, x2 = 0.0208 | 871.65 ± 2 | 871.93 ± 2
308.24 K, x2 = 0.9723 | 988.08 ± 2 | 988.11 ± 2
308.24 K, x2 = 0.9826 | 989.93 ± 2 | 989.95 ± 2
308.25 K, x2 = 0.6092 | 919.21 ± 2 | 919.38 ± 2
308.25 K, x2 = 0.8857 | 970.11 ± 2 | 970.18 ± 2
308.25 K, x2 = 0.9573 | 985.24 ± 2 | 985.28 ± 2
308.25 K, x2 = 0.9709 | 987.99 ± 2 | 987.82 ± 2
308.26 K, x2 = 0.0429 | 872.71 ± 2 | 872.89 ± 2
313.26 K, x2 = 0.3407 | 886.03 ± 2 | 886.33 ± 2
313.28 K, x2 = 0.0269 | 866.21 ± 2 | 866.56 ± 2
313.28 K, x2 = 0.0872 | 869.29 ± 2 | 869.63 ± 2
313.28 K, x2 = 0.9418 | 979.18 ± 2 | 979.28 ± 2
313.29 K, x2 = 0.0593 | 867.9 ± 2 | 868.25 ± 2
313.29 K, x2 = 0.9519 | 981.33 ± 2 | 981.43 ± 2
313.29 K, x2 = 0.9921 | 990.02 ± 2 | 990.1 ± 2
313.3 K, x2 = 0.0404 | 866.86 ± 2 | 867.21 ± 2
313.3 K, x2 = 0.988 | 989.08 ± 2 | 989.16 ± 2
313.31 K, x2 = 0.9826 | 987.78 ± 2 | 987.87 ± 2
313.32 K, x2 = 0.6092 | 913.96 ± 2 | 914.2 ± 2
313.32 K, x2 = 0.9723 | 985.71 ± 2 | 985.8 ± 2
313.33 K, x2 = 0.9709 | 985.46 ± 2 | 985.55 ± 2
313.34 K, x2 = 0.0208 | 866.07 ± 2 | 866.42 ± 2
313.34 K, x2 = 0.8857 | 966.2 ± 2 | 966.33 ± 2
313.34 K, x2 = 0.9573 | 982.55 ± 2 | 982.65 ± 2
313.35 K, x2 = 0.0429 | 867.1 ± 2 | 867.44 ± 2
